One may read the ED50 as the dose that gives a 50% effect, or the effect in half of the subjects.

We go through 1 compound from patent EP0511791A2, “Pyrrolopyridine derivatives as Angiotensin inhibitors” (ZENECA LIMITED, priority 1991, dated 1992).

For this assay, the system named is angiotensin II-induced pressor responses. Nature of the assay: Test C: antagonism of angiotensin II-induced pressor responses in rats. Type of assay: in vivo. To be noted: Rattus norvegicus, iv, i.v. administration. Here is the method: Test C: This in vivo test involves using terminally-anaesthetised or conscious rats in which an arterial catheter has been implanted under anaesthesia for the measurement of changes in blood pressure. The All antagonistic effects of the test compound following oral or parenteral administration, are assessed against angiotensin II-induced pressor responses. To ensure that the effect is specific, the effect of the test compound on vasopressin-induced pressor responses may also be determined in the same preparation.

The structures appear in SMILES notation.

Compound `Cc1cc2c(cc(C)n2Cc2ccc(-c3ccccc3-c3nnn[nH]3)cc2)c(Cl)n1.Cl` [Example 2, 4-chloro-2,6-dimethyl-1-[(2'-(1H-tetrazol-5-yl)biphenyl-4-yl)methyl]-1H-pyrrolo[3,2-c]pyridine hydrochloride] displayed an ED50 of 0.4 mg/kg.
